The test system of this experiment is L1210 leukemia ip in BDF1 mice, survival T/C. As to the kind of experiment: NCI In Vivo Anticancer Drug Screen. Data for tumor model L1210 Leukemia (intraperitoneal) in B6D2F1 (BDF1) mice. Particulars: higher = longer survival. Put shortly:
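Read-out is survival time, reported as the treated-group measurement over the vehicle-control measurement.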

[1] abbreviates: endpoint: mean survival time, dose: 25.0 mg/kg/injection, schedule: Q01DX009 (ip), vehicle: saline.
Where [2] appears, read: endpoint: mean survival time, dose: 50.0 mg/kg/injection, schedule: Q01DX009 (ip), vehicle: saline.

Molecules are shown by their SMILES. “And” between values parts separate entries of the source, which are not always exact repeats. Equal entries are not always repeated. Inconclusive results and toxic doses are left out.

Turning to `CSCS(=O)C[C@H](CO)NC(=O)/C=C/c1c(C)[nH]c(=O)[nH]c1=O` (some centres not stated), the T/C by setting is: (endpoint: mean survival time, dose: 0.38 mg/kg/injection, schedule: Q01DX001 (ip), vehicle: saline) 105 % of control; (endpoint: mean survival time, dose: 0.39 mg/kg/injection, schedule: Q04DX002 (ip), vehicle: Klucel (hydroxypropylcellulose) (HPC)) 96 % of control; (endpoint: mean survival time, dose: 0.75 mg/kg/injection, schedule: Q01DX001 (ip), vehicle: saline) 103 % of control; (endpoint: mean survival time, dose: 0.75 mg/kg/injection, schedule: Q01DX Z (ip), vehicle: carboxymethylcellulose (CMC)) 86 % of control; (endpoint: mean survival time, dose: 0.78 mg/kg/injection, schedule: Q04DX002 (ip), vehicle: Klucel (hydroxypropylcellulose) (HPC)) 96 % of control; (endpoint: mean survival time, dose: 1.1 mg/kg/injection, schedule: Q01DX001 (ip), vehicle: carboxymethylcellulose (CMC)) 106 % of control. Further, the T/C was 116 % of control (endpoint: mean survival time, dose: 1.5 mg/kg/injection, schedule: Q01DX001 (ip), vehicle: saline); 110 % of control (endpoint: mean survival time, dose: 1.56 mg/kg/injection, schedule: Q04DX002 (ip), vehicle: Klucel (hydroxypropylcellulose) (HPC)); 112 % of control (endpoint: mean survival time, dose: 1.7 mg/kg/injection, schedule: Q01DX001 (ip), vehicle: carboxymethylcellulose (CMC)); 112 % of control (endpoint: mean survival time, dose: 2.6 mg/kg/injection, schedule: Q01DX001 (ip), vehicle: carboxymethylcellulose (CMC)); 111 % of control (endpoint: mean survival time, dose: 3.0 mg/kg/injection, schedule: Q01DX001 (ip), vehicle: saline); 104 % of control (endpoint: mean survival time, dose: 3.13 mg/kg/injection, schedule: Q04DX002 (ip), vehicle: Klucel (hydroxypropylcellulose) (HPC)). For the same compound, for the setting “endpoint: median survival time, dose: 4.0 mg/kg/injection, schedule: Q04DX003 (ip), vehicle: saline”, the T/C was 121 % of control.

Regarding `Nc1cc(C(=O)Nc2ccc(CCNC3=NCCN3)cc2)ccc1C(=O)Nc1ccc(CCNC2=NCCN2)cc1`, the T/C is, setting by setting: (endpoint: mean survival time, dose: 0.26 mg/kg/injection, schedule: Q01DX001 (ip), vehicle: water) 103 % of control; (endpoint: mean survival time, dose: 0.4 mg/kg/injection, schedule: Q01DX001 (ip), vehicle: water) 101 % of control; (endpoint: mean survival time, dose: 0.6 mg/kg/injection, schedule: Q01DX001 (ip), vehicle: water) 103 % of control; (endpoint: mean survival time, dose: 0.93 mg/kg/injection, schedule: Q01DX001 (ip), vehicle: water) 101 % of control; (endpoint: mean survival time, dose: 0.93 mg/kg/injection, schedule: Q01DX015 (ip), vehicle: water) 101 % of control; (endpoint: mean survival time, dose: 1.87 mg/kg/injection, schedule: Q01DX015 (ip), vehicle: water) 119 % of control. Further, the T/C is 156 % of control (endpoint: mean survival time, dose: 3.75 mg/kg/injection, schedule: Q01DX015 (ip), vehicle: water); 109 % of control (endpoint: mean survival time, dose: 4.8 mg/kg/injection, schedule: Q01DX Z (oral), vehicle: water); 216 % of control (endpoint: mean survival time, dose: 7.5 mg/kg/injection, schedule: Q01DX015 (ip), vehicle: water); 265 % of control (endpoint: mean survival time, dose: 7.5 mg/kg/injection, schedule: Q01DX Z (ip), vehicle: water); 113 % of control (endpoint: mean survival time, dose: 7.5 mg/kg/injection, schedule: Q01DX Z (oral), vehicle: water); 111 % of control (endpoint: mean survival time, dose: 11.0 mg/kg/injection, schedule: Q01DX Z (oral), vehicle: water). In addition, the T/C is 97 % of control (endpoint: mean survival time, dose: 15.0 mg/kg/injection, schedule: Q01DX015 (ip), vehicle: water); 104 % of control and 119 % of control (endpoint: mean survival time, dose: 16.0 mg/kg/injection, schedule: Q01DX Z (oral), vehicle: water); 104 % of control (endpoint: mean survival time, dose: 23.0 mg/kg/injection, schedule: Q01DX Z (oral), vehicle: water); 102 % of control (endpoint: mean survival time, dose: 35.0 mg/kg/injection, schedule: Q01DX Z (oral), vehicle: water); 99 % of control and 115 % of control (endpoint: mean survival time, dose: 55.0 mg/kg/injection, schedule: Q01DX Z (oral), vehicle: water); 114 % of control (endpoint: mean survival time, dose: 85.0 mg/kg/injection, schedule: Q01DX Z (oral), vehicle: water). Further, the T/C runs as follows: (endpoint: mean survival time, dose: 125.0 mg/kg/injection, schedule: Q01DX Z (oral), vehicle: water) 118 % of control; (endpoint: mean survival time, dose: 190.0 mg/kg/injection, schedule: Q01DX Z (oral), vehicle: water) 104 % of control and 113 % of control.

Turning to `CCc1oc(N)nc1-c1ccccc1`, the T/C runs as follows: (endpoint: mean survival time, dose: 100.0 mg/kg/injection, schedule: Q04DX003 (ip), vehicle: saline with Tween-80) 105 % of control; (endpoint: mean survival time, dose: 200.0 mg/kg/injection, schedule: Q04DX003 (ip), vehicle: saline with Tween-80) 101 % of control; (endpoint: mean survival time, dose: 400.0 mg/kg/injection, schedule: Q04DX003 (ip), vehicle: saline with Tween-80) 97 % of control.

For `CC1CCC2(OC1)OC1CC3C4CCC5CC(O)C(O)CC5(C)C4CCC3(C)C1C2C` (configuration not stated), the T/C (endpoint: mean survival time, dose: 50.0 mg/kg/injection, schedule: Q01DX009 (ip), vehicle: acetone) was 92 % of control; the T/C (endpoint: mean survival time, dose: 100.0 mg/kg/injection, schedule: Q01DX009 (ip), vehicle: acetone) is 92 % of control; the T/C (endpoint: mean survival time, dose: 100.0 mg/kg/injection, schedule: Q04DX003 (ip), vehicle: saline) was 92 % of control; the T/C (endpoint: mean survival time, dose: 200.0 mg/kg/injection, schedule: Q01DX009 (ip), vehicle: acetone) was 100 % of control; the T/C (endpoint: mean survival time, dose: 200.0 mg/kg/injection, schedule: Q04DX003 (ip), vehicle: saline) is 97 % of control; the T/C (endpoint: mean survival time, dose: 400.0 mg/kg/injection, schedule: Q01DX009 (ip), vehicle: acetone) was 94 % of control. Further, for the setting “endpoint: mean survival time, dose: 400.0 mg/kg/injection, schedule: Q04DX003 (ip), vehicle: saline”, the T/C is 94 % of control.

For `CCc1ccc(/C(C#N)=C/c2ccc(OC)cc2)cc1`, the T/C by setting is: (endpoint: mean survival time, dose: 100.0 mg/kg/injection, schedule: Q01DX009 (ip), vehicle: Klucel (hydroxypropylcellulose) (HPC)) 92 % of control; (endpoint: mean survival time, dose: 200.0 mg/kg/injection, schedule: Q01DX009 (ip), vehicle: Klucel (hydroxypropylcellulose) (HPC)) 94 % of control; (endpoint: mean survival time, dose: 400.0 mg/kg/injection, schedule: Q01DX009 (ip), vehicle: Klucel (hydroxypropylcellulose) (HPC)) 92 % of control.

Regarding `C#CC(C)OCC(O)CCl` (configuration not stated), the T/C under setting [1] is 97 % of control; the T/C under setting [2] was 105 % of control; the T/C (endpoint: mean survival time, dose: 100.0 mg/kg/injection, schedule: Q01DX009 (ip), vehicle: saline) was 103 % of control and 89 % of control; the T/C (endpoint: mean survival time, dose: 100.0 mg/kg/injection, schedule: Q04DX003 (ip), vehicle: saline sonified) is 97 % of control; the T/C (endpoint: mean survival time, dose: 200.0 mg/kg/injection, schedule: Q04DX003 (ip), vehicle: saline sonified) is 87 % of control; the T/C (endpoint: mean survival time, dose: 400.0 mg/kg/injection, schedule: Q04DX003 (ip), vehicle: saline sonified) was 103 % of control.

For the compound `Cc1cc(N(CCCl)CCCl)ccc1C=Nc1ccc2c(c1)ncn2C`, the T/C by setting is: (endpoint: mean survival time, dose: 100.0 mg/kg/injection, schedule: Q04DX002 (ip), vehicle: Klucel (hydroxypropylcellulose) (HPC)) 98 % of control; (endpoint: mean survival time, dose: 200.0 mg/kg/injection, schedule: Q04DX002 (ip), vehicle: Klucel (hydroxypropylcellulose) (HPC)) 98 % of control; (endpoint: mean survival time, dose: 400.0 mg/kg/injection, schedule: Q04DX002 (ip), vehicle: Klucel (hydroxypropylcellulose) (HPC)) 98 % of control.

As to `CS(=O)(=O)OC/C(Br)=C/Br`, the T/C was 103 % of control (endpoint: mean survival time, dose: 100.0 mg/kg/injection, schedule: Q01DX001 (ip), vehicle: carboxymethylcellulose (CMC)) and 101 % of control (endpoint: mean survival time, dose: 200.0 mg/kg/injection, schedule: Q01DX001 (ip), vehicle: carboxymethylcellulose (CMC)).

On to `CCOC(=O)N1c2ccccc2C=CC1OCC` (configuration not stated), for which the T/C by setting is: (endpoint: mean survival time, dose: 12.0 mg/kg/injection, schedule: Q01DX009 (ip), vehicle: saline) 93 % of control; (endpoint: mean survival time, dose: 12.0 mg/kg/injection, schedule: Q04DX003 (ip), vehicle: saline) 119 % of control; under setting [1], 89 % of control; (endpoint: mean survival time, dose: 25.0 mg/kg/injection, schedule: Q04DX003 (ip), vehicle: saline) 113 % of control; under setting [2], 89 % of control; (endpoint: mean survival time, dose: 50.0 mg/kg/injection, schedule: Q04DX003 (ip), vehicle: saline) 94 % of control.

Turning to `C/C(=N/N=C(N)N)C(C)C`, the T/C is 102 % of control (endpoint: mean survival time, dose: 15.0 mg/kg/injection, schedule: Q01DX Z (ip), vehicle: carboxymethylcellulose (CMC)); 95 % of control (endpoint: mean survival time, dose: 27.0 mg/kg/injection, schedule: Q01DX Z (oral), vehicle: carboxymethylcellulose (CMC)); 100 % of control (endpoint: mean survival time, dose: 30.0 mg/kg/injection, schedule: Q01DX Z (ip), vehicle: carboxymethylcellulose (CMC)); 98 % of control (endpoint: mean survival time, dose: 40.0 mg/kg/injection, schedule: Q01DX Z (oral), vehicle: carboxymethylcellulose (CMC)); 92 % of control (endpoint: mean survival time, dose: 60.0 mg/kg/injection, schedule: Q01DX Z (ip), vehicle: carboxymethylcellulose (CMC)); 106 % of control (endpoint: mean survival time, dose: 60.0 mg/kg/injection, schedule: Q01DX Z (oral), vehicle: carboxymethylcellulose (CMC)). Further, the T/C by setting is: (endpoint: mean survival time, dose: 90.0 mg/kg/injection, schedule: Q01DX Z (oral), vehicle: carboxymethylcellulose (CMC)) 98 % of control; (endpoint: mean survival time, dose: 120.0 mg/kg/injection, schedule: Q01DX Z (oral), vehicle: carboxymethylcellulose (CMC)) 101 % of control; (endpoint: mean survival time, dose: 135.0 mg/kg/injection, schedule: Q01DX Z (oral), vehicle: carboxymethylcellulose (CMC)) 97 % of control.

Source of the values: PubChem BioAssay AID248 (DTP/NCI, 2004).
